Source: patent US20150352108A1, “AMINO-PYRIMIDINE COMPOUNDS AS INHIBITORS OF TBK1 AND/OR IKK EPSILON” (Alzheimer's Institute of America, priority 2009, published 2015)

Assays:
[1] = tested on: DU4475 cells; experiment: Cell growth inhibition assay (CellTiter-Glo), DU4475; format: cell-based; details: Homo sapiens, DU-4475; 3-5 days
Method: DU4475, COLO205, and OPM2 cells were plated in 96-well plates at 5000 cells/well. The following day test compounds (compounds according to Formula I) were added, maintaining the final DMSO solvent concentration at 0.4%. After the desired incubation time (3-5 days), cell number was assayed using the CellTiter-Glo luminescent cell viability assay (Promega, Inc., Madison, Wis.). Viability was expressed as percent DMSO control after background subtraction.

[2] = target: T1, TBK1 (Homo sapiens, UniProt Q9UHD2); experiment: In-vitro TBK1 kinase assay ([γ33]ATP filter-plate); format: biochemical; details: text bins; read-out: IC50 for inhibition of the kinase activity of TBK1
T1 construct: His-tag; made in house; host or cells: Sf9 insect cells
T1 sequence (Q9UHD2 1-729): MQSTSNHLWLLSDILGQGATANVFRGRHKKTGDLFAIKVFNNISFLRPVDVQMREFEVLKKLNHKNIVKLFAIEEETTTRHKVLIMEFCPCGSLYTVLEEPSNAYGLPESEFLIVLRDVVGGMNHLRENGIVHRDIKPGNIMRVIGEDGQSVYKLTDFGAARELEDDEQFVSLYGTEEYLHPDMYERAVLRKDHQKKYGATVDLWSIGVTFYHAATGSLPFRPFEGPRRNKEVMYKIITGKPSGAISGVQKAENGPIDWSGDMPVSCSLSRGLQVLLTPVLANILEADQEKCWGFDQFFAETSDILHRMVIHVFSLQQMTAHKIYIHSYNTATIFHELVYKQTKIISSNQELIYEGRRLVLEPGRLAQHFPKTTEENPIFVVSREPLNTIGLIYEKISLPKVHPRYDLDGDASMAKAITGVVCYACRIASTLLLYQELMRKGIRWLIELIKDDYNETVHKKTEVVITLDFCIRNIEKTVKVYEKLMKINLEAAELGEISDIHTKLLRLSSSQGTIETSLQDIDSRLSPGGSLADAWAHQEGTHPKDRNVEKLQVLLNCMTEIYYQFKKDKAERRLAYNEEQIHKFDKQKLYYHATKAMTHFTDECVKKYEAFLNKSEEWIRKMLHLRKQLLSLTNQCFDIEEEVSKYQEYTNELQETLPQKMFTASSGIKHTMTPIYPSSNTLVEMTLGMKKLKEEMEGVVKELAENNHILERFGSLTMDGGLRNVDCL
Summary of the method: (§1)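 His-tagged Sf9-expressed kinases at 0.1 or 0.02 μg/ml (TBK1) and 0.1 or 0.015 μg/ml (IKKε) for normal and sensitized formats, with myelin basic protein or casein substrate. ATP was at 2×Km (60 μM TBK1, 32 μM IKKε) plus 0.3 μCi [γ33]ATP. Reactions ran 30-45 min, were captured on P-81 filters, and counts were normalized to DMSO.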

[3] = target: T2, IKKε (Homo sapiens, UniProt Q14164); experiment: In-vitro IKKε kinase assay ([γ33]ATP filter-plate); format: biochemical; details: text bins; read-out: IC50 for inhibition of the kinase activity of IKKε
T2 construct: His-tag; made in house; host or cells: Sf9 insect cells
T2 sequence (Q14164 1-716): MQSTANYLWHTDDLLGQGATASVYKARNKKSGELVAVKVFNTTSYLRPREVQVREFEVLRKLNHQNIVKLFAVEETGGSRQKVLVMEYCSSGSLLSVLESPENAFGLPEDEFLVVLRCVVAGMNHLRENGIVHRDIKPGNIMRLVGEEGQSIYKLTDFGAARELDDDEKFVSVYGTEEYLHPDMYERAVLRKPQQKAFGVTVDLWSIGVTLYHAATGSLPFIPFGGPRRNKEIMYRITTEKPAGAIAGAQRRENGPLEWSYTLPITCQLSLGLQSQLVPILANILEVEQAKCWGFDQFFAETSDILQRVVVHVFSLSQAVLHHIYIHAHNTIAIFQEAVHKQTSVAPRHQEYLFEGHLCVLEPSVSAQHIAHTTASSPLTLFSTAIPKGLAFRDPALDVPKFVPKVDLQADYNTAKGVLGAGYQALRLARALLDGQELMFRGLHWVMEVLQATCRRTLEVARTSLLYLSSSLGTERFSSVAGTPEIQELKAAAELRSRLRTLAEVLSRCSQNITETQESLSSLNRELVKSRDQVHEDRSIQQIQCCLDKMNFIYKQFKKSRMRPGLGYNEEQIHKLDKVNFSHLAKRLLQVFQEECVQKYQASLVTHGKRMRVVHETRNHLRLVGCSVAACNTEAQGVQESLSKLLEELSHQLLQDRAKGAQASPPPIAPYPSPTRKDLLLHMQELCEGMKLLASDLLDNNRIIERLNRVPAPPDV
Summary of the method: as §1

[4] = tested on: IKKε-mediated phosphorylation of IRF3; experiment: In-situ phosphorylation of IRF3 (pIRF3 Ser396 ELISA) in HEK293T cells cotransfected with IRF3 and IKKε; format: cell-based; details: Homo sapiens, HEK-293T; HEK293T cells, 20 hours, text bins; read-out: IC50 for inhibition of the in-situ IKKε-mediated phosphorylation of IRF3
Summary of the method: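 For the IRF3 ELISA, HEK293T cells cotransfected with IRF3 and IKKε were replated at 20,000/well and treated 20 h. Phospho-Ser396 IRF3 was measured by ELISA and normalised to DMSO, with viability checked by CellTiter-Glo. For IRF7, cells transfected with IRF7 and TBK1 were treated overnight, and pSer477/Ser479 IRF7 was detected by Western blot.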

[5] = tested on: IFN-β secretion, RAW264.7 cells; experiment: IFN-β secretion by RAW264.7 cells after nucleic acid agonists (ELISA); format: cell-based, Mouse; details: 100 nM
Text: (§2) Mouse RAW264.7 macrophage-like cells provide a model for macrophage function in tissue culture. To investigate the efficacy of compounds according to Formula I in inhibiting nucleic acid cytosolic receptor pathways RAW264.7 cells were pretreated with a compound according to Formula I (Example Compound 471) and then exposed to various single stranded and double stranded RNA and DNA agonists introduced into the cell. To track IKKε/TBK1 signaling pathway activation, RANTES or IFN-β protein secretion was monitored by ELISA-based assays (R & D systems), such as those described above.
RAW264.7 cells were seeded in 96-well culture plates and allowed to grow overnight. The following day, media was replaced and cells were pretreated with 100 nM Example Compound 471 (0.1% final DMSO concentration). […] RANTES (FIG. 5) and IFN-β (FIG. 6) secretion were quantified using ELISA kits (Mouse CCL5/RANTES, R&D Systems, Inc., Minneapolis, Minn. and Mouse IFN-β, Thermo Fisher Scientific, Rockford, Ill.).

[6] = tested on: RANTES secretion, RAW264.7 cells; experiment: RANTES secretion by RAW264.7 cells after nucleic acid agonists (ELISA); format: cell-based, Mouse; details: 100 nM
Text: as §2
RAW264.7 cells were seeded in 96-well culture plates and allowed to grow overnight. The following day, media was replaced and cells were pretreated with 100 nM Example Compound 471 (0.1% final DMSO concentration). After one hour cells were transfected with Lipofectime LTX reagent (Invitrogen, Carlsbad, Calif.) and one of the following agonists: low molecular weight Poly(I:C) (InvivoGen, San Diego, Calif.) at 10 μg/ml to activate RIG-I; high molecular weight Poly(I:C) (InvivoGen, San Diego, Calif.) at 10 μg/ml to activate MDA5; Poly(dA:dT) (InvivoGen, San Diego, Calif.) at 1 ug/ml; 45-basepair double stranded interferon stimulatory DNA oligo (ISD) at 10 μg/ml (Stetson and Medzhitov; Recognition of cytosolic DNA activates an IRF3-dependent innate immune response; Immunity, 24:93-103, 2006); ssDNA at 10 μg/ml (InvivoGen, San Diego, Calif.), ssRNA at 0.5 μg/ml (InvivoGen, San Diego, Calif.), or salmon sperm genomic DNA (gDNA) (InvivoGen, San Diego, Calif.) at 10 ug/ml to activate DAI, IFI16, and other cytosolic nucleic acid receptors. RANTES (FIG. 5) and IFN-β (FIG. 6) secretion were quantified using ELISA kits (Mouse CCL5/RANTES, R&D Systems, Inc., Minneapolis, Minn. and Mouse IFN-β, Thermo Fisher Scientific, Rockford, Ill.).

IC50 [2] [nM]	IC50 [3] [nM]	IC50 [4] [nM]	Structure (SMILES)	IC50 [1] [nM]	induction of IFN-β secretion by DNA agonists ISD, ssDNA, poly(dA:dT), gDNA [5]	induction of IFN-β secretion by low and high molecular weight poly(I:C) [5]	induction of RANTES secretion by DNA agonists ISD, ssDNA, poly(dA:dT), gDNA [6]	induction of RANTES secretion by low and high molecular weight poly(I:C) [6]	induction of RANTES secretion by ssRNA agonist [6]
< 10	< 5		COc1ccc(-c2ccnc(Nc3cc(CO)c(OC)c(OC)c3)n2)cc1C#N [Example 127, 5-(2-{[3-(Hydroxymethyl)-4,5-dimethoxyphenyl]amino}pyrimidin-4-yl)-2-methoxybenzonitrile]	≤ 10					
	5 to 50		COCCOCC(=O)Nc1cc(Nc2nccc(-c3ccc(OC)c(C#N)c3)n2)cc(OC)c1 [compound 316, N-(3-{[4-(3-Cyano-4-methoxyphenyl)pyrimidin-2-yl]amino}-5-methoxyphenyl)-2-(2-methoxyethoxy) acetamide]	≤ 10					
10 to 100	5 to 50		COc1cc(NC(=O)CCSC)cc(Nc2nccc(-c3ccc(OC)c(C#N)c3)n2)c1 [compound 339, N-(3-{[4-(3-Cyano-4-methoxyphenyl)pyrimidin-2-yl]amino}-5-methoxyphenyl)-3-(methylsulfanyl) propanamide]	≤ 10					
< 10	< 5	< 100	N#Cc1cc(-c2ccnc(Nc3ccc(N4CCOCC4)cc3)n2)ccc1O[C@@H]1CCN(C(=O)CO)C1 [compound 471, 2-{[(3R)-1-(hydroxyacetyl)pyrrolidin-3-yl]oxy}-5-(2-{[4-(morpholin-4-yl)phenyl]amino}pyrimidin-4-yl)benzonitrile]		potently inhibited	modestly inhibited	potently inhibited	modestly inhibited	potently inhibited
